Patent publication US9771334B2, “Triketone compound and preparation method and use thereof” (SHANDONG CYNDA CHEMICAL CO., LTD., priority 2013, dated 2017)

Columns and labels:
Test in all cases: Herbicidal activity, pot culture method (primary and secondary screening test)
Assay type in all cases: in vivo
Conditions in all cases: primary screening, pot culture, 150 g/ha, sprayed at 3-leaf stage, result 15 days later
abutilon theophrasti = test system: abutilon theophrasti
From the text: (§1) This test example is for describing the herbicidal activity inhibition ratio (%) (the dose is 150 g/ha) of the compound with a structure shown in Formula (I). Primary screening test (pot culture method): The test targets are abutilon theophrasti, digitaria sanguinalis, amaranthus retroflexus, echinochloa crusgalli, eclipta prostrata and setaria viridis. Take flowerpots with an inner diameter of 6 cm, put composite soil (vegetable garden soil:seedling matrix=1:2, v/v) into them till 3⁄4 of flowerpot height, directly sow the above six weed targets (budding rate>85%), cover them with 0.2 cm thick soil, and keep them for future use when the weeds grow to 3-leaf stage. Each compound is dissolved in N,N-dimethylformamide at a dose of 150 g/ha and diluted with distilled water into a 0.2 g/L solution. The solution is sprayed through an automatic spray tower. After the solution on weed leaves is aired dry, the flowerpots are moved into a greenhouse for cultivation. The result is investigated 15 days later. By the same method adopted in primary screening test, a secondary screening test is done on some typical compounds, such as: 5, 6, 20, 21, 23, 34, 47, 65, 66, 70 and 91 at a reduced dose, and the test result is compared with mesotrione which is commercially available and has a good herbicidal effect. The test method is same as that adopted in primary screening test. Mesotrione is bought from Hubei […] Chemical Co., Ltd.

amaranthus retroflexus = test system: amaranthus retroflexus
From the text: as §1

digitaria sanguinalis = test system: digitaria sanguinalis
From the text: as §1

echinochloa crusgalli = test system: echinochloa crusgalli
From the text: as §1

eclipta prostrata = test system: eclipta prostrata
From the text: as §1

setaria viridis = test system: setaria viridis
From the text: as §1

SMILES | herbicidal activity inhibition ratio (%), Abutilon theophrasti (abutilon theophrasti) | herbicidal activity inhibition ratio (%), Amaranthus retroflexus (amaranthus retroflexus) | herbicidal activity inhibition ratio (%), Digitaria sanguinalis (digitaria sanguinalis) | herbicidal activity inhibition ratio (%), Echinochloa crusgalli (echinochloa crusgalli) | herbicidal activity inhibition ratio (%), Eclipta prostrata (eclipta prostrata) | herbicidal activity inhibition ratio (%), Setaria viridis (setaria viridis)
Cn1c(=O)n(-c2ccc(OC(F)(F)F)cc2)c(=O)c2cc(C(=O)C3=C(O)CCCC3=O)ccc21 [Compound 50] | 50% | 95% | 60% | 78% | 80% | 50%
Cn1c(=O)n(-c2cccc(C(F)(F)F)c2)c(=O)c2cc(C(=O)C3=C(O)CC(C)(C)CC3=O)ccc21 [Compound 51] | 93% | 90% | 83% | 50% | 80% | 40%
Cn1c(=O)n(-c2cccc(C(F)(F)F)c2)c(=O)c2cc(C(=O)C3=C(O)CCCC3=O)ccc21 [Compound 52] | 55% | 98% | 50% | 85% | 75% | 80%
Cn1c(=O)n(-c2ccc([N+](=O)[O-])cc2)c(=O)c2cc(C(=O)C3=C(O)CC(C)(C)CC3=O)ccc21 [Compound 53] | 100% | 80% | 25% | 0% | 80% | 80%
Cc1cccc(C)c1-n1c(=O)c2cc(C(=O)C3=C(O)C(C)(C)CCC3=O)ccc2n(C)c1=O [Compound 54] | 100% | 98% | 60% | 95% | 80% | 45%
COc1cccc(-n2c(=O)c3cc(C(=O)C4=C(O)CCCC4=O)ccc3n(C)c2=O)c1 [Compound 55] | 100% | 95% | 60% | 93% | 68% | 25%
COc1cccc(-n2c(=O)c3cc(C(=O)C4=C(O)CC(C)(C)CC4=O)ccc3n(C)c2=O)c1 [Compound 56] | 55% | 80% | 55% | 60% | 75% | 60%
COc1ccc(-n2c(=O)c3cc(C(=O)C4=C(O)CCCC4=O)ccc3n(C)c2=O)cc1 [Compound 57] | 60% | 95% | 75% | 85% | 80% | 50%
COc1ccc(-n2c(=O)c3cc(C(=O)C4=C(O)CC(C)(C)CC4=O)ccc3n(C)c2=O)cc1 [Compound 58] | 100% | 90% | 88% | 80% | 68% | 60%
Cc1ccccc1-n1c(=O)[nH]c2ccc(C(=O)C3=C(O)CC(C)(C)CC3=O)cc2c1=O [Compound 59] | 0% | 30% | 0% | 0% | 25% | 10%
Cn1c(=O)n(-c2cc(C(F)(F)F)ccc2Cl)c(=O)c2cc(C(=O)C3=C(O)CCCC3=O)ccc21 [Compound 60] | 100% | 70% | 40% | 65% | 0% | 80%
Cn1c(=O)n(-c2cc(C(F)(F)F)ccc2Cl)c(=O)c2cc(C(=O)C3=C(O)CC(C)(C)CC3=O)ccc21 [Compound 61] | 65% | 0% | 25% | 0% | 20% | 10%
Cn1c(=O)n(-c2ccc(Cl)cc2Cl)c(=O)c2cc(C(=O)C3=C(O)CCCC3=O)ccc21 [Compound 62] | 100% | 88% | 65% | 83% | 20% | 93%
Cn1c(=O)n(-c2ccc(Cl)cc2Cl)c(=O)c2cc(C(=O)C3=C(O)CC(C)(C)CC3=O)ccc21 [Compound 63] | 100% | 30% | 20% | 25% | 50% | 30%
CC1CC(=O)C(C(=O)c2ccc3c(c2)c(=O)n(-c2ccc(Cl)cc2Cl)c(=O)n3C)=C(O)C1 (stereo not drawn) [Compound 64] | 95% | 80% | 60% | 90% | 0% | 93%
Cc1cc(C)c(-n2c(=O)c3cc(C(=O)C4=C(O)CCCC4=O)ccc3n(C)c2=O)c(C)c1 [Compound 67] | 95% | 80% | 80% | 83% | 0% | 80%
Cc1ccccc1-n1c(=O)[nH]c2ccc(C(=O)C3=C(O)CCCC3=O)cc2c1=O [Compound 68] | 15% | 0% | 0% | 0% | 0% | 10%
CCn1c(=O)n(-c2ccccc2C)c(=O)c2cc(C(=O)C3=C(O)CC(C)(C)CC3=O)ccc21 [Compound 69] | 100% | 95% | 30% | 90% | 88% | 85%
CCCn1c(=O)n(-c2ccccc2C)c(=O)c2cc(C(=O)C3=C(O)CCCC3=O)ccc21 [Compound 71] | 95% | 85% | 25% | 80% | 98% | 98%
CCCn1c(=O)n(-c2ccccc2C)c(=O)c2cc(C(=O)C3=C(O)CC(C)(C)CC3=O)ccc21 [Compound 72] | 100% | 20% | 20% | 30% | 60% | 30%
CCCCn1c(=O)n(-c2ccccc2C)c(=O)c2cc(C(=O)C3=C(O)CCCC3=O)ccc21 [Compound 73] | 50% | 30% | 0% | 0% | 0% | 10%
